Laboratory results published in patent publication EP1202975B1, “SUBSTITUTED POLYCYCLIC ARYL AND HETEROARYL PYRAZINONES USEFUL FOR SELECTIVE INHIBITION OF THE COAGULATION CASCADE” (Pharmacia Corporation, priority 1999, dated 2000).
Read-outs that look alike come from different tables or passages of the source.

Tests used:
TF-VIIa = molecular target: T1, TF-VIIa (Homo sapiens, UniProt P08709); experiment: TF-VIIa Assay; assay type: biochemical
T1 construct: 2nM recombinant human factor VIIa; purchased American Diagnostica, Greenwich CT; host or cells: soluble TF made in house in E. coli
T1 sequence (P08709 213-466 limits assumed): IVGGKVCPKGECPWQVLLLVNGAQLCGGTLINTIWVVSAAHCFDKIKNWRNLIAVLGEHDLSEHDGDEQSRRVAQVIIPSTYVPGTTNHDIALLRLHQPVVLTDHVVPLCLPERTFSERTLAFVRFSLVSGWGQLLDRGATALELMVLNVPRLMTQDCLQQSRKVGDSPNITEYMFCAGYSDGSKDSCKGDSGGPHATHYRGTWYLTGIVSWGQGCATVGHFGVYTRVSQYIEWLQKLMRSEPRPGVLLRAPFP
T1 sequence (P08709 61-212 limits assumed): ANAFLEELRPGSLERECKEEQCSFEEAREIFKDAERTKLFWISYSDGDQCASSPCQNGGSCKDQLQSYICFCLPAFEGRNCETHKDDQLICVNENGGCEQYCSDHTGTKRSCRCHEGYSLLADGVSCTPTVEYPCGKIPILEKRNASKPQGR
T1 sequence (P13726 33-251 partner limits assumed): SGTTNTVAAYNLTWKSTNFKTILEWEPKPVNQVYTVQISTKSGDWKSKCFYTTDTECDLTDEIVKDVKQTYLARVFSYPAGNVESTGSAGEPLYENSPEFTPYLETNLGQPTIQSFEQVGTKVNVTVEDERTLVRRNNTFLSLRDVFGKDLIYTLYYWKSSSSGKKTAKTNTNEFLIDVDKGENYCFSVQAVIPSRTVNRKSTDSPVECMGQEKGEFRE

Human factor Xa = Human factor Xa (Homo sapiens, UniProt P00742)
Human factor Xa, sequence (P00742 235-488 limits assumed): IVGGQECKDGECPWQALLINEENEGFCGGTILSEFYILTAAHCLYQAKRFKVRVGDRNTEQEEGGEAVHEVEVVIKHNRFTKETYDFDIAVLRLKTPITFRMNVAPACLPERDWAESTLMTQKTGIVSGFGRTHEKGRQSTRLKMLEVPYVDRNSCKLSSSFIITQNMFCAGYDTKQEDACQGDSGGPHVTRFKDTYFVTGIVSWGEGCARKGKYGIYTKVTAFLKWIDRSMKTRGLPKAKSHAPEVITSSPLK
Human factor Xa, sequence (P00742 41-179 limits assumed): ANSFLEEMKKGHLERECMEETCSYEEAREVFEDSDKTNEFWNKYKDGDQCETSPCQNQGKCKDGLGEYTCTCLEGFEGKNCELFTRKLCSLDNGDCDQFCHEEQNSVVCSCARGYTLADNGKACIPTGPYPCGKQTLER

[1] = read-out: IC50 or % Inhibition TF-VIIa (30 µM); cells given as a plain number (IC50)
[2] = read-out: IC50 or % Inhibition TF-VIIa (30 µM); cells without % sign: IC50
[3] = cells given as a plain number (IC50); read-out: IC50 or % Inhibition TF-VIIa (30 µM)

| Structure (SMILES) | IC50 (TF-VIIa; [1]) [µM] | IC50 or % Inhibition Factor Xa (30 µM) (Human factor Xa) [%] | further results |
| --- | --- | --- | --- |
| Cc1c(Cl)nc(NCCN2CCOCC2)c(=O)n1CC(=O)NCCc1ccncc1 [Example E-0007] |  |  | % Inhibition TF-VIIa (100 µM) (TF-VIIa): 0%; % Inhibition Factor Xa (100 µM) (Human factor Xa): 0% |
| Cc1c(Cl)nc(NCc2ccccc2)c(=O)n1CC(=O)NCCc1ccncc1 [Example E-0001] |  |  | % Inhibition TF-VIIa (100 µM) (TF-VIIa): 0%; % Inhibition Factor Xa (100 µM) (Human factor Xa): 1% |
| COc1ccc(-c2c(Cl)nc(NCCc3cccc(Cl)c3)c(=O)n2CC(=O)NCCc2cccnc2)cc1 [Example E-0104] |  |  | % Inhibition TF-VIIa (100 µM) (TF-VIIa): 3%; % Inhibition Factor Xa (100 µM) (Human factor Xa): 5% |
| N=C(N)c1ccc(CNC(=O)Cn2c(-c3ccccc3)c(Cl)nc(NCc3cc(C(F)(F)F)ccc3F)c2=O)cc1 [1512-27] | 16.5 | 3 |  |
| N=C(N)c1ccc(CNC(=O)Cn2c(-c3ccccc3)c(Cl)nc(NC3CCCc4ccccc43)c2=O)cc1 (stereo not shown) [1507-16] | 5.8 | 18 |  |
| N=C(N)NCC#CCNC(=O)Cn1c(-c2ccccc2)cnc(NCCc2ccccc2)c1=O [Example 36] |  | 0 | IC50 or % Inhibition TF-VIIa (30 µM) (TF-VIIa): 5% |
| N=C(N)c1ccc(CNC(=O)Cn2c(-c3cccc(N)c3)c(Cl)nc(NCCN3CCCC3)c2=O)cc1 [1543-03] |  | 34 | IC50 (TF-VIIa; [2]): 0.64 µM |
| Cc1c(Cl)nc(NCCc2cccnc2)c(=O)n1CC(=O)NCCc1ccncc1 [Example E-0005] |  |  | % Inhibition TF-VIIa (100 µM) (TF-VIIa): 0%; % Inhibition Factor Xa (100 µM) (Human factor Xa): 0% |
| C[Si](C)(C)CNc1nc(Cl)c(-c2ccccc2)n(CC(=O)NCc2ccc(C(=N)N)cc2)c1=O [1517-36] | 3 | 0 |  |
| CCCCNc1nc(Cl)c(-c2cccc(N)c2)n(CC(=O)NCc2ccc(C(=N)N)cc2F)c1=O [1543-36] |  | 15 | IC50 (TF-VIIa; [2]): 0.08 µM |
| N=C(N)c1ccc(CNC(=O)Cn2c(-c3cccc(Cl)c3)c(Cl)nc(NCCc3ccncc3)c2=O)cc1 [1471-29] | 2.18 | 21 |  |
| CCc1c(Cl)nc(NCCc2cccc(Cl)c2)c(=O)n1CC(=O)NCc1ccc(C(=N)N)cc1 [1471-62] |  | 0 | IC50 or % Inhibition TF-VIIa (30 µM) (TF-VIIa): 4% |
| N=C(N)c1ccc(CNC(=O)Cn2c(-c3ccccc3)c(Cl)nc(NC3CCC3)c2=O)cc1 [1507-21] |  | 23 | IC50 (TF-VIIa; [3]): 0.4 µM |
| O=C(Cn1c(Cc2ccccc2)c(Cl)nc(NCCc2ccccc2)c1=O)NCCc1ccncc1 [Example E-0058] |  |  | % Inhibition TF-VIIa (100 µM) (TF-VIIa): 0%; % Inhibition Factor Xa (100 µM) (Human factor Xa): 0% |
| O=C(Cn1c(CCc2ccccc2)c(Cl)nc(NCCc2ccc(Cl)cc2)c1=O)NCCc1ccncc1 [Example E-0068] |  |  | % Inhibition TF-VIIa (100 µM) (TF-VIIa): 0%; % Inhibition Factor Xa (100 µM) (Human factor Xa): 0% |
| CCOc1ccccc1CNc1nc(Cl)c(-c2ccccc2)n(CC(=O)NCc2ccc(C(=N)N)cc2)c1=O [1512-11] | 30 | 5 |  |
| N=C(N)c1ccc(CNC(=O)Cn2c(-c3ccccc3)c(Cl)nc(NCc3ccc(C(F)(F)F)cc3F)c2=O)cc1 [1512-26] | 26.9 | 5 |  |
| N=C(N)c1ccc(CNC(=O)Cn2c(-c3cccc(Cl)c3)c(Cl)nc(NCCc3cccnc3)c2=O)cc1 [1471-32] | 1.19 | 25 |  |
| C[C@H](C(=O)NCc1ccc(C(=N)N)cc1)n1c(-c2ccccc2)c(Cl)nc(NC2CCC2)c1=O [1517-11] | 3 | 0 |  |
| N=C(N)c1ccc(CNC(=O)Cn2c(-c3ccccc3)c(Cl)nc(NC3Cc4ccccc4C3)c2=O)cc1 [1507-08] |  | 1 | IC50 or % Inhibition TF-VIIa (30 µM) (TF-VIIa): 7% |
| C[C@H](C(=O)NCc1ccc(C(=N)N)cc1)n1c(-c2ccccc2)c(Cl)nc(NCc2ccccc2)c1=O [1517-05] | 4.6 | 0 |  |
| N=C(N)c1ccc(CNC(=O)Cn2c(-c3ccc4c(c3)OCO4)c(Cl)nc(NCc3ccccc3)c2=O)cc1 [1471-41] | 18.3 | 34 |  |
| N=C(N)c1ccc(CNC(=O)C(Cc2ccccc2)n2c(-c3ccccc3)c(Cl)nc(NCCc3cccc(Cl)c3)c2=O)cc1 (stereo not shown) [1517-20] |  | 0 | IC50 or % Inhibition TF-VIIa (30 µM) (TF-VIIa): 22% |
| N=C(N)c1ccc(CNC(=O)Cn2c(-c3cccc(N)c3)c(Cl)nc(NCCN3CCCCC3)c2=O)cc1 [1543-15] |  | 41 | IC50 (TF-VIIa; [2]): 0.95 µM |

| Structure (SMILES) | IC50 (TF-VIIa; [1]) [µM] | IC50 or % Inhibition Factor Xa (30 µM) (Human factor Xa) [%] | further results |
| --- | --- | --- | --- |
| Cc1c(Cl)nc(NCCc2ccncc2)c(=O)n1CC(=O)NCc1ccc(C(=N)N)cc1 [1471-5] | 8.69 | 12 |  |
| O=C(Cn1c(CCc2ccccc2)c(Cl)nc(NCc2ccccc2)c1=O)NCCc1ccncc1 [Example E-0065] |  |  | % Inhibition TF-VIIa (100 µM) (TF-VIIa): 0%; % Inhibition Factor Xa (100 µM) (Human factor Xa): 0% |
| N=C(N)c1ccc(CNC(=O)Cn2c(-c3cccc(N)c3)c(Cl)nc(NC3CC3)c2=O)c(F)c1 [1543-33] |  | 14 | IC50 (TF-VIIa; [2]): 0.03 µM |
| COc1cccc(CNc2nc(Cl)c(-c3ccccc3)n(CC(=O)NCc3ccc(C(=N)N)cc3)c2=O)c1OC [1512-02] | 19.2 | 3 |  |
| N=C(N)c1ccc(CNC(=O)Cn2c(-c3ccccc3)c(Cl)nc(NCC(F)(F)F)c2=O)cc1 [1507-41] |  | 17 | IC50 or % Inhibition TF-VIIa (30 µM) (TF-VIIa): 48% |
| CCCC(CCC)Nc1nc(Cl)c(-c2ccccc2)n(CC(=O)NCc2ccc(C(=N)N)cc2)c1=O [1517-26] |  | 0 | IC50 (TF-VIIa; [3]): 1.8 µM |
| N=C(N)c1ccc(CNC(=O)Cn2c(-c3ccccc3)c(Cl)nc(NCCc3ccc(Cl)c(Cl)c3)c2=O)cc1 [1507-44] | 6 | 9 |  |
| N=C(N)c1ccc(CNC(=O)Cn2c(-c3cccc(Cl)c3)c(Cl)nc(NCCc3cccc(Cl)c3)c2=O)cc1 [1471-30] | 0.83 | 41 |  |
| CN1CCCC1CCNc1nc(Cl)c(-c2ccccc2)n(CC(=O)NCc2ccc(C(=N)N)cc2)c1=O (stereo not shown) [1512-46] | 11.7 | 10 |  |
| CCCCC(CC)Nc1nc(Cl)c(-c2ccccc2)n(CC(=O)NCc2ccc(C(=N)N)cc2)c1=O (stereo not shown) [1512-12] | 11.3 | 5 |  |
| Cc1c(Cl)nc(NCCc2cccnc2)c(=O)n1CC(=O)NCc1ccc(C(=N)N)cc1 [1471-8] | 3.86 | 27 |  |
| C[C@H](C(=O)NCc1ccc(C(=N)N)cc1)n1c(-c2ccccc2)c(Cl)nc(NCCc2cccc(Cl)c2)c1=O [1517-23] | 2.3 | 0 |  |
| O=C(Cn1c(-c2ccccc2)c(Cl)nc(NCCc2ccncc2)c1=O)NCCc1ccncc1 [Example E-0014] |  |  | % Inhibition TF-VIIa (100 µM) (TF-VIIa): 0%; % Inhibition Factor Xa (100 µM) (Human factor Xa): 0% |
| COc1ccc(-c2c(Cl)nc(NCc3ccccc3)c(=O)n2CC(=O)NCCc2cccnc2)cc1 [Example E-0098] |  |  | % Inhibition TF-VIIa (100 µM) (TF-VIIa): 0%; % Inhibition Factor Xa (100 µM) (Human factor Xa): 2% |
| N=C(N)c1ccc(CNC(=O)Cn2c(-c3ccccc3)c(Cl)nc(NCc3ccc(Cl)cc3)c2=O)cc1 [1507-46] |  | 8 | IC50 (TF-VIIa; [3]): 4.3 µM |
| N=C(N)c1ccc(CNC(=O)C(Cc2ccccc2)n2c(-c3ccccc3)c(Cl)nc(NC3CCC3)c2=O)cc1 (stereo not shown) [1517-08] |  | 0 | IC50 or % Inhibition TF-VIIa (30 µM) (TF-VIIa): 43% |
| O=C(Cn1c(Cc2ccccc2)c(Cl)nc(NCc2ccccc2)c1=O)NCCc1ccncc1 [Example E-0057] |  |  | % Inhibition TF-VIIa (100 µM) (TF-VIIa): 0%; % Inhibition Factor Xa (100 µM) (Human factor Xa): 6% |
| O=C(Cn1c(CCc2ccccc2)c(Cl)nc(NCCc2cccc(Cl)c2)c1=O)NCCc1ccncc1 [Example E-0067] |  |  | % Inhibition TF-VIIa (100 µM) (TF-VIIa): 0%; % Inhibition Factor Xa (100 µM) (Human factor Xa): 0% |
| N=C(N)c1ccc(CNC(=O)Cn2c(-c3ccsc3)c(Cl)nc(NCCc3cccc(Cl)c3)c2=O)cc1 [1517-19] | 0.9 | 0 |  |
| CC(C)Nc1ncc(-c2cccc(N)c2)n(CC(=O)NCc2ccc(C(=N)N)c(F)c2)c1=O [Example 43] | 0.25 | 0 |  |
| Nc1n[nH]c2cc(CNC(=O)Cn3c(-c4ccccc4)cnc(NCCc4ccccc4)c3=O)ccc12 [Example 39] | 1.7 | 0 |  |
| N=C(N)c1ccc(CNC(=O)Cn2c(-c3ccccc3)c(Cl)nc(NCC3CC3)c2=O)cc1 [1517-43] |  | 0 | IC50 or % Inhibition TF-VIIa (30 µM) (TF-VIIa): 25% |
| N=C(N)NC/C=C\CNC(=O)Cn1c(-c2ccccc2)cnc(NCCc2ccccc2)c1=O [Example 37] | 1.8 | 0 |  |
